A short description of data set [1]: Test for solubility in water. In kind it is physicochemical. The conditions noted are these: for solubility: water, thermodynamic from solid. The protocol:
The experiments herein can measure the dissolution profile in water of the compounds according to the present invention.
To a 25 ml volumetric flask, 25 mg everolimus was added, and diluted with acetonitrile to volume. The mixture was shaken till all the solid dissolved, obtaining 1 mg/mL everolimus solution in acetonitrile.
1 mg/mL everolimus solution in acetonitrile was added to a 10 ml volumetric flask, and was diluted with acetonitrile by 2 times, 10 times, 100 times and 1000 times, so as to obtain everolimus solutions in acetonitrile with a concentration of 0.5 mg/mL, 0.1 mg/mL, 0.01 mg/mL and 0.001 mg/mL, respectively.
Each of the three mixtures was shaken till the solid in the volumetric flask stopped to dissolve. Before analyzed by HPLC, 1 mL of each solution was filtrated via a 0.22 μm filter. The solubility of the compounds was calculated from the standard curve using the peak area of the main peak obtained.
Based on the same study method, comparisons of the solubility between sirolimus/temsirolimus and the compounds modified by glutathione are carried out, respectively.

In data set [2] the test system is human liver cancer cell HepG2. Kind of data set: In vitro activity assay, growth of HepG2 (thymidine incorporation). The conditions noted are these: 48 h. In kind it is cell-based. The source says: (§1) The anti-tumor activity and toxicity of the compounds according to the present invention can be assayed through standard operational procedures of pharmacological experiment. The experiments carried out herein can test the inhibitory effect of the compounds according to the present invention on the growth of human liver cancer cell HepG2, lung cancer cell NCI460, prostate cancer cell DU145, prostate cancer cell PC3, and human breast cancer cell MDA-MB-435. The operational procedure used is briefly described below by taking the inhibitory activity assay against human liver cancer cell HepG2 as an example.
Human liver cancer cell HepG2 grew in the follow medium:
Preparation of the growth medium: BRL minimum essential medium with Earle Salts (500 mL), with the addition of the following agents:
(§2) The operational procedure for the assay is as follows:
(§3) 1. Cells after being trypsinized were inoculated in 96-well plates at a concentration of 10^4 cells/well, and allowed to grow in a medium with a final volume of 200 μL. The 96-well plates after inoculation are allowed to stand for 24 hours at 37° C., in order to allow the cells to adhere to the surface of the wells.
(§4) 2. The medium was removed by carefully pipetting without disturbing the cell monolayer. 200 μL Fresh medium was added into each well. It is arranged to make it possible to collect samples from enough wells to run the experiments in triplicate.
(§5) 3. The compounds to be tested according to the present invention were dissolved into 10 μL phosphate buffered solution (PBS) and incubated for 48 h at 37° C.
(§6) 4. In the last 6 h of incubation, cells in each well of the 96-well plates were labeled by 1 microcurie T thymidine (New England Nuclear thymidine), by adding 10 μL PBS containing 1 microcurie T thymidine (which was added into the PBS on the day of collecting the samples for test). The 96-well plates were then returned to the incubator and incubated for the last 6 h.
(§7) 5. Without disturbing the cell monolayer, the radioactive medium was removed by pipetting. Then 50 μL of BRL 10×trypsin was added to each well, followed by incubation at 37° C. for 10 minutes or until the cell monolayer was detached from the bottom (or the wall) of each well. Samples were collected on glass-fiber diskettes using a Skatron 96-well cell harvester. Cells depositing on the glass-fiber diskettes were counted in a Wallac Betaplate counter.
Background: Dividing cells build labelled thymidine or BrdU into new DNA.

Another data set relates to lung cancer cell NCI460. Kind of data set: In vitro activity assay, growth of NCI460. It counts as cell-based. Particulars: NCI-460, 48 h.
From the text: as §1, §2, §3, §4, §5, §6, §7

The test system of data set [3] is prostate cancer cell DU145. Kind of data set: In vitro activity assay, growth of DU145. In kind it is cell-based. Particulars: Homo sapiens; DU-145; 48 h.
From the text: as §1, §2, §3, §4, §5, §6, §7

For a further data set, the system named is prostate cancer cell PC3. The data set can be described thus: In vitro activity assay, growth of PC3. In kind it is cell-based. Particulars: 48 h.
From the text: as §1, §2, §3, §4, §5, §6, §7

Data set [4] has as its system human breast cancer cell MDA-MB-435. Kind of data set: In vitro activity assay, growth of MDA-MB-435. It counts as cell-based. The conditions noted are these: 48 h.
From the text: as §1, §2, §3, §4, §5, §6, §7

The structures appear in SMILES notation. Converted amounts (≈) assume the structure as drawn. Read-outs that look alike come from different tables or passages of the source.

What is called solubility is how much of the substance goes into solution per volume. In general, IC50 refers to the concentration at which inhibition is half-maximal. A higher IC50 goes with weaker potency in that assay. Turning to `CO[C@H]1C[C@@H]2CC[C@@H](C)[C@@](O)(O2)C(=O)C(=O)N2CCCC[C@H]2C(=O)O[C@H]([C@H](C)C[C@@H]2CC[C@@H](O)[C@H](OC)C2)CC(=O)[C@H](C)/C=C(\C)[C@@H](O)[C@@H](OC)C(=O)[C@H](C)C[C@H](C)/C=C/C=C/C=C/1C` [Sirolimus, reference compound], in data set [1], the solubility was under 1 µg/mL. For the same compound, the IC50 amounted to 66.254 ± 0.007 µM in data set [2]; 101.36 ± 0.013 µM in the data set on lung cancer cell NCI460; 68.52 ± 0.009 µM in data set [3]; 42.371 ± 0.009 µM with prostate cancer cell PC3; 68.57 ± 0.007 µM in data set [4].
As to `CO[C@H]1C[C@@H]2CC[C@@H](C)[C@@](O)(O2)C(=O)C(=O)N2CCCC[C@H]2C(=O)O[C@H]([C@H](C)C[C@@H]2CC[C@@H](OC(=O)C(C)(CO)CO)[C@H](OC)C2)CC(=O)[C@H](C)/C=C(\C)[C@@H](O)[C@@H](OC)C(=O)[C@H](C)C[C@H](C)/C=C/C=C/C=C/1C` [Temsirolimus, reference compound], in data set [1] (pure water, Table 2, compounds I-5, I-6, I-7 converted to temsirolimus, read-out: Solubility in water), the solubility was about 1 µg/mL (≈ 0.971 µM). Also, the half-inhibitory concentration (IC50) was determined as 60.337 ± 0.01 µM in data set [2]; 113.25 ± 0.011 µM in the data set with lung cancer cell NCI460; 65.361 ± 0.015 µM in data set [3]; 47.319 ± 0.005 µM in the data set with prostate cancer cell PC3; 77.31 ± 0.005 µM in data set [4].
Consider `CO[C@H]1C[C@@H]2CC[C@@H](C)[C@@](O)(O2)C(=O)C(=O)N2CCCC[C@H]2C(=O)OC([C@H](C)C[C@@H]2CC[C@@H](OC(=O)CSC[C@H](NC(=O)CC[C@H](N)C(=O)O)C(=O)NCC(=O)O)[C@H](OC)C2)CC(=O)[C@H](C)/C=C(\C)[C@@H](OC(=O)CSC[C@H](NC(=O)CC[C@H](N)C(=O)O)C(=O)NCC(=O)O)[C@@H](OC)C(=O)[C@H](C)C[C@@H](C)\C=C/C=C/C=C/1C` (stereo partly shown) [Compound I-4], for which the “increase of solubility in water as compared with sirolimus” value in data set [1] is on record as at least 610 times. This compound also showed a solubility in data set [1] of 610 µg/mL (≈ 379 µM). In addition, the IC50 in data set [2] amounted to 73.402 ± 0.007 µM; in the data set with lung cancer cell NCI460 it was 122.8 ± 0.017 µM; in data set [3], 93.277 ± 0.011 µM; in the data set with prostate cancer cell PC3 it was 51.413 ± 0.005 µM; in data set [4] it was 73.283 ± 0.012 µM.
Turning to `CO[C@H]1C[C@@H]2CC[C@@H](C)[C@@](O)(O2)C(=O)C(=O)N2CCCC[C@H]2C(=O)OC([C@H](C)C[C@@H]2CC[C@@H](OC(=O)C(C)(COC(=O)CSC[C@H](NC(=O)CC[C@H](N)C(=O)O)C(=O)NCC(=O)O)COC(=O)CSC[C@H](NC(=O)CC[C@H](N)C(=O)O)C(=O)NCC(=O)O)[C@H](OC)C2)CC(=O)[C@H](C)/C=C(\C)[C@@H](OC(=O)CSC[C@H](NC(=O)CC[C@H](N)C(=O)O)C(=O)NCC(=O)O)[C@@H](OC)C(=O)[C@H](C)C[C@@H](C)\C=C/C=C/C=C/1C` (stereo partly shown) [Compound I-7], the “increase of solubility in water as compared with temsirolimus” value in data set [1] is at least 830 times. In addition, the solubility in data set [1] turned out to be 830 µg/mL (≈ 401 µM). Further, the IC50 in data set [2] is 76.703 ± 0.012 µM; in the data set on lung cancer cell NCI460, 131.26 ± 0.01 µM; in data set [3], 82.51 ± 0.015 µM; in the data set with prostate cancer cell PC3, 60.492 ± 0.01 µM; in data set [4], 81.31 ± 0.008 µM.
Regarding `CO[C@H]1C[C@@H]2CC[C@@H](C)[C@@](O)(O2)C(=O)C(=O)N2CCCC[C@H]2C(=O)OC([C@H](C)C[C@@H]2CC[C@@H](OC(=O)CSC[C@H](NC(=O)CC[C@H](N)C(=O)O)C(=O)NCC(=O)O)[C@H](OC)C2)CC(=O)[C@H](C)/C=C(\C)[C@@H](O)[C@@H](OC)C(=O)[C@H](C)C[C@@H](C)\C=C/C=C/C=C/1C` (stereo partly shown) [Compound I-3], in data set [1], the “increase of solubility in water as compared with sirolimus” value is on record as “at least 470 times”. Also, in data set [1], the solubility came to 470 µg/mL (≈ 373 µM). Further, the half-maximal inhibitory concentration (IC50) is 35.188 ± 0.007 µM in data set [2]; 82.328 ± 0.011 µM in the data set on lung cancer cell NCI460; 62.511 ± 0.01 µM in data set [3]; 31.396 ± 0.008 µM with prostate cancer cell PC3; 63.633 ± 0.015 µM in data set [4].
On to `CO[C@H]1C[C@@H]2CC[C@@H](C)[C@@](O)(O2)C(=O)C(=O)N2CCCC[C@H]2C(=O)OC([C@H](C)C[C@@H]2CC[C@@H](OC(=O)C(C)(CO)COC(=O)CSC[C@H](NC(=O)CC[C@H](N)C(=O)O)C(=O)NCC(=O)O)[C@H](OC)C2)CC(=O)[C@H](C)/C=C(\C)[C@@H](O)[C@@H](OC)C(=O)[C@H](C)C[C@@H](C)\C=C/C=C/C=C/1C` (stereo partly shown) [Compound I-5], for which the “increase of solubility in water as compared with temsirolimus” value in data set [1] is given as “at least 580 times”. This compound displayed a solubility in data set [1] of 580 µg/mL (≈ 421 µM). The 50% inhibitory concentration (IC50) in data set [2] was determined as 50.213 ± 0.01 µM; in the data set on lung cancer cell NCI460, 80.53 ± 0.013 µM; in data set [3], 60.813 ± 0.011 µM; in the data set on prostate cancer cell PC3, 38.396 ± 0.008 µM; in data set [4] it was 70.761 ± 0.009 µM.

The record behind these values is patent US10442835B2, “Water-soluble rapamycin derivatives” (Zhejiang Hisun Pharmaceutical Co., Ltd., priority 2016, dated 2019).
